Numbered stars: 1 amine (or outer) side, 2 acyl side, 3 side chain; on linkers, the order of the positions; unused ones are H or OH. Bridge positions count the residues as written; N and C are the ends. Square brackets hold non-standard residues; d marks the D form. Peptide text beside a SMILES is read from it. * marks the point of attachment. Orn(4R-OH,5R-OH) = O=C([C@H](C[C@@H](O)[C@@H](O)N[*:3])N[*:1])[*:2]; Pro(3S-OH,4S-Me) = C[C@H]1CN[C@H](C(=O)O)[C@H]1O; hTyr(3R-OH) = N[C@H](C(=O)O)[C@H](O)Cc1ccc(O)cc1; Hyp = O=C(O)[C@@H]1C[C@@H](O)CN1; X1 = CCC(C)CCCCCCCCCCC(=O)*
Experiments:
Botrytis cinerea 211 = assay: Minimum inhibitory concentration; type: cell-based
[1] = system: Trichophyton mentagrophytes; assay: Minimum inhibitory concentration; type: cell-based
Cladosporium species = assay: Minimum inhibitory concentration; type: cell-based
Microsporum canis = assay: Minimum inhibitory concentration; type: cell-based
Cercospora beticola 71 = assay: Minimum inhibitory concentration; type: cell-based
Candida albicans = assay: Minimum inhibitory concentration; type: cell-based
Botrytis cinerea 47 = assay: Minimum inhibitory concentration; type: cell-based
Saccharomycis cerevisiae = assay: Minimum inhibitory concentration; type: cell-based
Botrytis cinerea 212 = assay: Minimum inhibitory concentration; type: cell-based
Microsporum gypseum = assay: Minimum inhibitory concentration; type: cell-based
Aspergillus niger = assay: Minimum inhibitory concentration; type: cell-based
Penicillium italicum = assay: Minimum inhibitory concentration; type: cell-based
Botrytis cinerea 57 = assay: Minimum inhibitory concentration; type: cell-based
[2] = Solubility (physicochemical properties)
Excerpt: Physicochemical Properties of the New Antibiotic Deoxymulundocandin

With `CCC(C)CCCCCCCCCCC(=O)N[C@H]1C[C@@H](O)[C@@H](O)NC(=O)[C@@H]2[C@@H](O)[C@@H](C)CN2C(=O)[C@H](CO)NC(=O)[C@H]([C@H](O)Cc2ccc(O)cc2)NC(=O)[C@@H]2C[C@@H](O)CN2C(=O)[C@H]([C@@H](C)O)NC1=O` (stereo partly drawn) [Deoxymulundocandin] (X1-[Orn(4R-OH,5R-OH)]T[Hyp][hTyr(3R-OH)]S[Pro(3S-OH,4S-Me)]; lactam 1-C) the “Minimum Inhibitory Concentration” value (Botrytis cinerea 211) was 25 micrograms per milliliter, the “Minimum Inhibitory Concentration” value [1] was < 0.18 micrograms per milliliter and the “Minimum Inhibitory Concentration” value (Cladosporium species) was 0.75 micrograms per milliliter. For the same molecule, the “Minimum Inhibitory Concentration” value (Microsporum canis) was < 0.18 micrograms per milliliter, the “Minimum Inhibitory Concentration” value (Cercospora beticola 71) was 6.25 micrograms per milliliter and the “Minimum Inhibitory Concentration” value (Candida albicans) was 1.5 micrograms per milliliter. The “Minimum Inhibitory Concentration” value (Botrytis cinerea 47) was 6.25 micrograms per milliliter, the “Minimum Inhibitory Concentration” value (Saccharomycis cerevisiae) was 3.1 micrograms per milliliter and the “Minimum Inhibitory Concentration” value (Botrytis cinerea 212) was 25 micrograms per milliliter. For the same molecule, the “Minimum Inhibitory Concentration” value (Microsporum gypseum) was 0.18 micrograms per milliliter, the “Minimum Inhibitory Concentration” value (Aspergillus niger) was 3.1 micrograms per milliliter and the “Minimum Inhibitory Concentration” value (Penicillium italicum) was 25 micrograms per milliliter. For the same molecule, the “Minimum Inhibitory Concentration” value (Botrytis cinerea 57) was 50 micrograms per milliliter, the Solubility ([2]; in methanol, dimethyl formamide, dimethyl sulfoxide) was “Soluble” and the Solubility ([2]; in water, acetone, acetonitrile, ethyl acetate, carbon tetrachloride, chloroform, benzene, petroleum ether) was “sparingly soluble”.

— patent publication US5387670A, “Antibiotic, deoxymulundocandin, a process for its production and its use as medicament” (Hoechst Aktiengesellschaft, priority 1990, dated 1995)
